The NIST ThermoML archive (doi:10.1021/acs.jced.9b00209)

Assays:
[1] = Boiling temperature at pressure P; details: Liquid, Ebulliometric method (Recirculating still)
[2] = 101.33 kPa, Liquid, Pycnometric method
[3] = molar heat capacity at saturation pressure; details: Liquid, Vacuum adiabatic calorimetry

CC(C)CCOC(=O)C(C)O (configuration not stated) [isopentyl 2-hydroxypropanoate]
Details | Boiling temperature at pressure P [°C] | mass density [kg/m3] | molar heat capacity [J/K/mol]
[1], 4.5 kPa | 101.44 | – | –
[1], 8.6 kPa | 118.64 | – | –
[1], 13.8 kPa | 131.41 | – | –
[1], 18.4 kPa | 139.2 | – | –
[1], 22.8 kPa | 146.61 | – | –
[1], 27.9 kPa | 153.00 | – | –
[1], 33.2 kPa | 158.40 | – | –
[1], 38.6 kPa | 163.80 | – | –
[1], 42.9 kPa | 168.23 | – | –
[1], 48.2 kPa | 171.66 | – | –
[1], 52.3 kPa | 174.60 | – | –
[1], 57.6 kPa | 178.1 | – | –
[1], 62.3 kPa | 182.00 | – | –
[1], 69.2 kPa | 186.00 | – | –
[1], 72.7 kPa | 188.32 | – | –
[1], 77 kPa | 190.7 | – | –
[1], 82 kPa | 192.98 | – | –
[1], 87.2 kPa | 195.31 | – | –
[1], 91.4 kPa | 197.64 | – | –
[1], 95.7 kPa | 199.20 | – | –
[1], 100.7 kPa | 201.00 | – | –
[1], 110.3 kPa | 205.41 | – | –
[2], 288.15 K | – | 976 | –
[2], 293.65 K | – | 973.5 | –
[2], 298.15 K | – | 969.5 | –
[2], 303.15 K | – | 965 | –
[2], 308.15 K | – | 960.6 | –
[2], 315.65 K | – | 954.9 | –
[2], 320.15 K | – | 950 | –
[2], 326.15 K | – | 945.3 | –
[2], 331.65 K | – | 939.8 | –
[2], 336.15 K | – | 937.8 | –
[2], 341.45 K | – | 931.1 | –
[2], 346.15 K | – | 928 | –
[2], 350.95 K | – | 922.7 | –
[2], 355.65 K | – | 917 | –
[2], 361.65 K | – | 913.2 | –
[2], 367.15 K | – | 908 | –
[2], 373.15 K | – | 903 | –
[2], 378.45 K | – | 898.3 | –
[2], 383.45 K | – | 893 | –
[2], 390.65 K | – | 887.5 | –
[2], 397.15 K | – | 883.1 | –
[2], 404.35 K | – | 876.4 | –
[2], 410.85 K | – | 869.6 | –
[2], 417.05 K | – | 864.7 | –
[2], 420.45 K | – | 861 | –
[2], 424.75 K | – | 854.7 | –
[2], 428.15 K | – | 854.2 | –
[2], 434.25 K | – | 848.9 | –
[2], 441.75 K | – | 842.2 | –
[2], 448.55 K | – | 836 | –
[2], 453.15 K | – | 832 | –
[3], 288.15 K | – | – | 360.71
[3], 293.65 K | – | – | 362.52
[3], 298.15 K | – | – | 364.02
[3], 303.55 K | – | – | 365.85
[3], 308.95 K | – | – | 367.71
[3], 313.65 K | – | – | 369.34
[3], 318.45 K | – | – | 371.04
[3], 323.65 K | – | – | 372.9
[3], 328.25 K | – | – | 374.56
[3], 333.85 K | – | – | 376.6
[3], 338.75 K | – | – | 378.4
[3], 343.05 K | – | – | 380
[3], 348.55 K | – | – | 382.06
[3], 353.15 K | – | – | 383.8
[3], 358.45 K | – | – | 385.81
[3], 363.35 K | – | – | 387.69
[3], 368.05 K | – | – | 389.51
[3], 373.75 K | – | – | 391.72
[3], 378.85 K | – | – | 393.72
[3], 383.35 K | – | – | 395.5
[3], 388.65 K | – | – | 397.6
[3], 393.25 K | – | – | 399.44
[3], 398.45 K | – | – | 401.54
[3], 403.15 K | – | – | 403.44
[3], 408.65 K | – | – | 405.69
[3], 413.15 K | – | – | 407.54
[3], 418.85 K | – | – | 409.91
[3], 423.95 K | – | – | 412.04
[3], 428.45 K | – | – | 413.94
[3], 433.15 K | – | – | 415.95
[3], 438.55 K | – | – | 418.27
[3], 443.65 K | – | – | 420.49
[3], 448.15 K | – | – | 422.47
[3], 453.65 K | – | – | 424.92
